GI50, IC50 and inhibition data for three compounds are collected here from US7705021B2, “Isoindolone compounds, compositions containing the same, and methods of use thereof for the treatment of viral infections related to the etiology of cancer” (Fox Chase Cancer Center, priority 2005, dated 2010).

Assay [1] has as its system HCT-116 cells. Put plainly: Proliferation assay (WST-1). As to conditions: Homo sapiens, HCT-116, 48 hours. The format is cell-based. As to the method: Five thousand HCT-116 cells were seeded into each well of a 96 well flat bottom plate and incubated over night at 37° C. in 5% CO2. The growth of plated cells was measured by adding […] WST-1 reagent (Roche Applied Sciences, Germany) to three control wells and measuring OD650 and OD450 absorbances with a SpectraMax250 plate reader. If the OD650-OD450 values were above 0.5, the remainder of the plate was used for incubation with compounds or solvent control for 48 hours. After this incubation, WST-1 reagent was added to the wells and OD650-OD450 values were calculated as before. Triplicate wells were assayed for each condition and standard deviation was determined; all experiments were performed at least three times independently.
A general note: Tetrazolium dyes change colour on reduction, which living cells bring about.

For assay [2], the system named is HLR (HeLa Luciferase Reporter)-Elk-1 cells. Put plainly: MAPK signaling reporter assay (Elk-1 luciferase, EGF-stimulated). The format is cell-based. The conditions noted are these: Homo sapiens, 5 h, HLR-Elk-1 cells, EGF 10 ng/ml stimulation, luciferase after five hours. As to the method: The present example describes assays for assessing MAPK pathway signaling modulation mediated by the compounds and compositions described herein. Specifically, compounds of the invention have been assessed in an ELK-1 luciferase reporter assay in HeLa cells to obtain an IC50 measurement as well as to assess their anti-proliferative capacity. Following 72 hours of serum starvation, HLR (HeLa Luciferase Reporter)-Elk-1 cells (30,000 cells per well) were incubated for one hour in the presence or absence of various concentration of inhibitors prior to stimulation of Elk1 release by EGF addition (10 ng/ml). The amount of Elk1 release was measured after five hours using Bright-Glo Luciferase assay (Promega Co., Madison, Wis.).

Structures are written as SMILES.

One may read the GI50 as the concentration that inhibits growth by half. Higher therefore signals lower sensitivity of the cells. As usually defined, the IC50 is the point on the concentration scale where inhibition reaches its midpoint. A lower IC50 goes with greater potency in that assay. Take `COc1cc(C2(OC)c3ccccc3C(=O)N2CCc2ccccn2)ccc1OCc1ccccc1` (stereo not drawn) [Compound 7, 3-(4-Benzyloxy-3-methoxy-phenyl)-3-methoxy-2-(2-pyridin-2-yl-ethyl)-2,3-dihydro-isoindol-1-one]: in assay [1], it took 22.2 ± 5.3 µM to inhibit growth by half (GI50). This compound displayed an IC50 in assay [2] of 22.2 ± 6.8 µM.
In general, inhibition refers to the relative decrease from the control value, in per cent. `COc1cc(C2c3ccccc3C(=O)N2CCc2ccccn2)ccc1OCc1ccccc1` (stereo not drawn) [Compound 8, 3-(4-Benzyloxy-3-methoxy-phenyl)-2-(2-pyridin-2-yl-ethyl)-2,3-dihydro-isoindol-1-one] registered an inhibition at 60 µM in assay [1] of 21%. Half-maximal inhibition in assay [2] (IC50) was put at 31.8 ± 6.1 µM.
Take `COc1cc(CN2C(=O)c3ccccc3C2Cc2ccccn2)ccc1OCc1ccccc1` (stereo not drawn) [Compound 11, 2-(4-benzyloxy-3-methoxy-benzyl)-3-(2-pyridin-2-yl-methyl)-2,3-dihydro-isoindol-1-one]: at 60 µM the inhibition in assay [1] was 26%. In assay [2], it took 43 ± 6.9 µM to reach half-maximal inhibition (IC50).
